Values quoted from earlier work, collected in patent publication US20140234406A1, “NOVEL NANOPARTICULATE SUSPENSION FOR INCORPORATING FAT-SOLUBLE VITAMINS IN THE TREATMENT OF HAIR THINNING and HAIR LOSS” (HairRx, priority 2013, published 2014).

Conditions: biological half-life; reported by Yap et al. 2001 and Schwedhelm et al. 2003

half-life: 73 to 81 h
Structure (SMILES): Cc1c(C)c2c(c(C)c1O)CC[C@@](C)(CCC[C@H](C)CCC[C@H](C)CCCC(C)C)O2 [alpha-tocopherol]
